In PMC8682760, “Specificity and sensitivity of an RNA targeting type III CRISPR complex coupled with a NucC endonuclease effector” (Nucleic Acids Research, 2021):
Where “and” joins values, the source holds several entries; their conditions need not be identical. Equal entries are not always repeated.

Experiments:
[1] = molecular target: T1, NucC (Vibrio metoecus, UniProt P0DUD6); test: fluorogenic dsDNA (FAM/Iowa Black) cleavage, plate reader; assay type: biochemical; details: read-out: Act50
T1 construct: Codon-optimised synthetic gene in pEV5HisTEV, N-terminal His8 tag (TEV step as for VmeCmr), E. coli C43(DE3); trimeric species used
T1 sequence (P0DUD6 1-245): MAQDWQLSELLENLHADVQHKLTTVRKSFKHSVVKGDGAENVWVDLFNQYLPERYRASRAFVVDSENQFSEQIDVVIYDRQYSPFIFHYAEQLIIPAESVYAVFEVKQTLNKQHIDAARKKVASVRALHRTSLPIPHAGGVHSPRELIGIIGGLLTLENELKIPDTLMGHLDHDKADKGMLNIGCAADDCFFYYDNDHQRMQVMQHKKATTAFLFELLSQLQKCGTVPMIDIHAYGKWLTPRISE

[2] = molecular target: the molecule itself; test: SEC; HiLoad 16/60 Superdex pg 200, 20 mM Tris-HCl, 250 mM NaCl, 10% (v/v) glycerol, pH 7.5; peaks at approximately 160 ml and 180 ml

Nc1ncnc2c1ncn2[C@@H]1O[C@@H]2COP(=O)(O)O[C@H]3[C@@H](O)[C@H](n4cnc5c(N)ncnc54)O[C@@H]3COP(=O)(O)O[C@H]3[C@@H](O)[C@H](n4cnc5c(N)ncnc54)O[C@@H]3COP(=O)(O)O[C@H]2[C@H]1O [cA3]
EC50 [1]: 94 ± 4 pM

B1: Vibrio metoecus NucC DNA endonuclease effector (enzyme, UniProt P0DUD6 1-245, looked up)
chain: T1 sequence (P0DUD6 1-245)
notes: NucC of the Vibrio metoecus type III-B CRISPR locus; source: E. coli C43(DE3), purified (HisTrap, TEV, second HisTrap, SEC on Superdex 200); not shown: His8, N-terminal, cleaved
stoichiometry N [2]: 6 and 3
